# Laboratory results from ChEMBL document CHEMBL4689842, “EUbOPEN Chemogenomics Library wave 1” (2021).
# Assays:
# Type in all cases: toxicity, cell-based
# HEK-293T = assay: Incucyte cell viability with HEK293T; details: human, 10 µM, compound concentration 10 uM
# Fibroblast = assay: Incucyte cell viability with human fibroblast; details: 10 µM, compound concentration 10 uM
# U2OS = assay: Incucyte cell viability with U2OS; details: human, 10 µM, compound concentration 10 uM
# [1] = 0 h, replicate number 1, timepoint 0 hours
# [2] = 6 h, replicate number 1, timepoint 6 hours
# [3] = 12 h, replicate number 1, timepoint 12 hours
# [4] = 18 h, replicate number 1, timepoint 18 hours
# [5] = 24 h, replicate number 1, timepoint 24 hours
# [6] = 24 h, replicate number 2, timepoint 24 hours
# [7] = 0 h, replicate number 2, timepoint 0 hours
# [8] = 6 h, replicate number 2, timepoint 6 hours
# [9] = 12 h, replicate number 2, timepoint 12 hours
# [10] = 18 h, replicate number 2, timepoint 18 hours
# Also: filed as whole numbers so only -1 and 0 and 1 occur.
SMILES,Growth Rate (HEK-293T; [1]),Growth Rate (HEK-293T; [2]),Growth Rate (HEK-293T; [3]),Growth Rate (HEK-293T; [4]),Growth Rate (HEK-293T; [5]),Growth Rate (HEK-293T; [6]),Growth Rate (Fibroblast; [1]),Growth Rate (Fibroblast; [8]),Growth Rate (Fibroblast; [9]),Growth Rate (Fibroblast; [4]),Growth Rate (Fibroblast; [10]),Growth Rate (Fibroblast; [5]),Growth Rate (U2OS; [1]),Growth Rate (U2OS; [2]),Growth Rate (U2OS; [8]),Growth Rate (U2OS; [3]),Growth Rate (U2OS; [4]),Growth Rate (U2OS; [10]),Growth Rate (U2OS; [5]),Growth Rate (Fibroblast; [3]),further results
NC(=O)[C@@H]1CCCN1C(=O)[C@H](Cc1cnc[nH]1)NC(=O)[C@@H]1CCC(=O)N1 [PROTIRELIN],0,1,1,1,1,0,0,0,1,1,0,1,0,1,0,0,0,1,0,–,Growth Rate (Fibroblast; [7]): 1; Growth Rate (Fibroblast; [6]): 0
CCN1CCC[C@H]1CNC(=O)c1c(OC)ccc(Br)c1OC [REMOXIPRIDE],0,1,1,1,1,–,0,0,0,1,0,1,–,–,1,0,0,1,0,–,Growth Rate (Fibroblast; [6]): 0; Growth Rate (U2OS; [9]): 1; Growth Rate (U2OS; [6]): 1
CN(CCOc1ccc(CC2SC(=O)NC2=O)cc1)c1ccccn1 (stereo unspecified) [ROSIGLITAZONE],1,1,1,1,1,0,0,0,0,1,0,1,0,0,1,1,1,–,1,1,Growth Rate (HEK-293T; [7]): 0; Growth Rate (HEK-293T; [8]): 0; Growth Rate (HEK-293T; [9]): 0; Growth Rate (HEK-293T; [10]): 0
Cc1cc(OCC(=O)O)cc(C)c1Cc1ccc(O)c(C(C)C)c1 [SOBETIROME],0,0,0,0,0,1,0,0,0,1,–,0,–,–,0,1,0,1,1,–,Growth Rate (HEK-293T; [10]): 1; Growth Rate (Fibroblast; [2]): -1; Growth Rate (Fibroblast; [6]): 1; Growth Rate (U2OS; [7]): 0
O=C1c2ccc(Nc3ccc(F)cc3F)cc2CCc2ccc(OC[C@H](O)CO)cc21 [Skepinone-L],–,0,–,–,1,–,–,–,–,0,–,0,0,0,–,0,0,1,0,0,Growth Rate (Fibroblast; [2]): 0
COc1cccc(CNC(=O)c2nc3scc(COCc4ccc(C(=O)O)cc4)c3c(=O)[nH]2)c1 [T-26c],0,–,–,1,1,–,–,0,0,1,0,1,0,1,0,1,1,–,1,1,Growth Rate (HEK-293T; [7]): 1; Growth Rate (Fibroblast; [7]): 0; Growth Rate (U2OS; [9]): 0
CCOC(=O)c1ccc(C#Cc2ccc3c(c2)C(C)(C)CCS3)nc1 [TAZAROTENE],–,0,0,0,0,–,0,–,–,1,–,0,–,–,1,0,0,1,0,1,Growth Rate (HEK-293T; [7]): 0; Growth Rate (HEK-293T; [8]): 1; Growth Rate (U2OS; [7]): 0; Growth Rate (U2OS; [9]): 1; Growth Rate (U2OS; [6]): 1
Cc1ccc2[nH]c(CNCCCc3ccncc3)cc(=O)c2c1 [UCSF924NC],1,0,0,0,0,1,1,–,–,0,–,0,–,0,–,0,0,1,0,0,Growth Rate (HEK-293T; [7]): 0; Growth Rate (HEK-293T; [8]): 1; Growth Rate (HEK-293T; [9]): 1; Growth Rate (HEK-293T; [10]): 1; Growth Rate (Fibroblast; [2]): 0; Growth Rate (U2OS; [9]): 1
CC[C@@H]1CN(C(=O)NCC(F)(F)F)C[C@@H]1c1cnc2cnc3[nH]ccc3n12 [UPADACITINIB],0,–,–,–,–,1,0,–,–,1,–,1,0,0,–,0,0,–,0,1,Growth Rate (Fibroblast; [2]): 1; Growth Rate (U2OS; [7]): 1; Growth Rate (U2OS; [9]): 1
O=C(NNS(=O)(=O)c1ccccc1)c1cc(-c2ccnnc2)ccc1F [WM-2474],0,1,1,1,0,1,0,0,–,1,–,1,1,0,–,0,0,–,1,1,Growth Rate (U2OS; [7]): 0; Growth Rate (U2OS; [6]): 0
CC(C)(Cc1ccccc1)NCC(O)c1ccc(O)c(NS(C)(=O)=O)c1.Cl (stereo unspecified) [ZINTEROL HYDROCHLORIDE],0,1,1,1,1,0,–,–,1,–,1,–,–,0,–,1,0,1,1,–,Growth Rate (HEK-293T; [8]): 0; Growth Rate (HEK-293T; [9]): 0; Growth Rate (HEK-293T; [10]): 0; Growth Rate (Fibroblast; [6]): 1
